In patent publication US20130011345A1, “FLAVOR-ENHANCING AMIDE COMPOUNDS” (priority 2011, published 2013):

Assay: Sensory evaluation of the MSG-IMP umami composition combined with Formulas II and III by a trained sensory panel
Conditions: for Flavor Profile: trained sensory panel; for Effect on umami flavor of the MSG-IMP mixture (summary statement): combined with MSG-IMP mixture, all tested concentrations
Description: The MSG-IMP mixture (0.01% MSG and 0.005% IMP), an umami composition, was combined with Formulas II and III at different concentrations and evaluated by a trained sensory panel.

[1] = Formula concentration 1 ppm in MSG-IMP mixture (0.01% MSG and 0.005% IMP)
[2] = Formula concentration 500 ppb in MSG-IMP mixture (0.01% MSG and 0.005% IMP)

Structure (SMILES)	Flavor Profile [1]	Flavor Profile [2]	Effect on umami flavor of the MSG-IMP mixture (summary statement)	Flavor Profile (Formula concentration 5 ppm in MSG-IMP mixture (0.01% MSG and 0.005% IMP))
C#CC#CCC/C=C\C(=O)NCC(C)CC (stereo not shown) [Formula III, (Z)-N-(2-methylbutyl)nona-2-en-6,8-diynamide]	Increased mouthfullness, delocalized	Increased mouthfullness, delocalized	enhanced the umami flavor	–
C#CC#CCC/C=C/C(=O)NCC(C)CC (stereo not shown) [Formula II, (E)-N-(2-methylbutyl)nona-2-en-6,8-diynamide]	Increased umami flavor and less greasy	Increased mouth-feel, savory	enhanced the umami flavor	Strong umami enhancement
